Data reported in patent US9783500B2, “2-aminoquinoline-based compounds for potent and selective neuronal nitric oxide synthase inhibition” (priority 2014, dated 2017).
Counter-ions that a name gives are not always drawn.

Target: rat nNOS (Rattus norvegicus (Rat), UniProt P29476)
Conditions: Table 1; for Selectivity n/e / Selectivity n/i: ratio of Ki values; for Selectivity n/e: bovine eNOS/rat nNOS; for Selectivity n/i: murine iNOS/rat nNOS

Row | Compound | Selectivity n/e | Selectivity n/i | Ki (read-out: Ki nNOS, purified rat nNOS, Ki calculated from IC50)
1 | Cl.Cl.Nc1ccc2ccc(CNCCc3cccc(F)c3)cc2n1 [5 (Ex. 8), 7-[(3-Fluorophenethylamino)methyl]quinolin-2-amine Dihydrochloride] | 6.2 | – | –
2 | Cl.Cl.Nc1ccc2ccc(CCNCc3cccc(F)c3)cc2n1 [6 (Ex. 12), 7-[2-(3-Fluorobenzylamino)ethyl]quinolin-2-amine Dihydrochloride] | 30 | 97 | –
3 | Nc1ccc2cc(CCNCCCc3cccc(F)c3)ccc2n1 [13 (Ex. 30), 6-{2-[3-(3-Fluorophenyl(propylamino)ethyl]}quinolin-2-amine Dihydrochloride] | – | – | 4.37 µM

Now from value to compound, other results behind:

Row | Selectivity n/e | Selectivity n/i | Compound | Ki (read-out: Ki nNOS, purified rat nNOS, Ki calculated from IC50)
4 | 62 | 538 | Nc1ccc2ccc(CNCCCc3cccc(F)c3)cc2n1 [9 (Ex. 9), 7-{2-[3-(3-Fluorophenyl(propylamino)methyl]}quinolin-2-amine Dihydrochloride] | –
5 | – | 280 | Cl.Cl.Nc1ccc2ccc(CCNCCc3ccc(F)cc3)cc2n1 [14 (Ex. 16), 7-[(4-Fluorophenethylamino)ethyl]quinolin-2-amine Dihydrochloride] | –
6 | 47 | 91 | Cl.Cl.Nc1ccc2ccc(CCNCCc3ccc(Cl)cc3)cc2n1 [16 (Ex. 18), 7-[(4-Chlorophenethylamino)ethyl]quinolin-2-amine Dihydrochloride] | –
